# Reference: patent US20260157369A1, “COMPOSITIONS CONTAINING PEROXYACID TO INHIBIT GROWTH OF SPORE-PRODUCING ORGANISMS IN ANIMAL FEED AND RELATED METHODS” (KEMIN INDUSTRIES, INC., priority 2024, published 2026)
# Read-outs that look alike come from different tables or passages of the source. Marks after values point to notes of the source that are not given here.
# How the values were obtained:
# [1] = test system: Aspergillus niger isolate; experiment: Minimum fungicidal concentration (MFC); type: cell-based; conditions: for MFC: Aspergillus niger, read-out: Minimum fungicidal concentration
# [2] = test system: Penicillium chrysogenum Thom ATCC 48908; experiment: Well diffusion assay (zone of inhibition); type: cell-based; conditions: for zone of inhibition at 175000 µM / zone of inhibition at 350000 µM: Penicillium chrysogenum, read-out: Zone of inhibition, Average ± standard deviation
# [3] = test system: Aspergillus niger ATCC 24126; experiment: Well diffusion assay (zone of inhibition); type: cell-based; conditions: for zone of inhibition at 175000 µM / zone of inhibition at 350000 µM: Aspergillus niger, read-out: Zone of inhibition, Average ± standard deviation
# [4] = test system: A. niger; experiment: Fungicidal effect in mold suspension, one hour treatment, DRBC plating; type: cell-based, Aspergillus niger; conditions: for A. niger count, Average ± standard deviation: n = 3
# Procedure: Preparation of mold suspension. Aspergillus niger ATCC 24126 and Penicillium chrysogenum Thom ATCC 48908 were purchased from American Type Culture Collection (ATCC). The strains were stored at −80° C. in glycerol. Prior to test, both strains were revived by streaking a loopful of culture onto DRBC (i.e., dichloran rose-bengal chloramphenicol (CM1148B; Thermo Scientific Oxoid) prepared as per recommended by supplier) with 72 hours incubation at 25° C. The three-days old mold culture lawn was diluted in phosphate buffer (0.30 mM; pH 7.2) to obtain a mold suspension of ca. 10^6 CFU/mL. The colony count of the suspension was determined through conventional plating method using DRBC agar at the appropriate dilution. Briefly, the mold suspension was diluted to the appropriate dilution with phosphate buffer (0.30 mM; pH 7.2). Upon dilution, 100 μL of the diluted mold suspension was spread onto the DRBC agar. After which, the plates were incubated at 25° C. for five days prior to counting. Tests were carried out in triplicates.
# Fungicidal effect of PPA against A. niger. The fungicidal effect of PPA in solution was evaluated in comparison to propionic acid and hydrogen peroxide. To serve as a positive control and comparison point, propionic acid, was tested at two concentrations, 1500 and 3000 ppm, equivalent to 0.02 and 0.04 mol/L. On the other hand, PPA was tested at a single concentration of 0.02 mol/L. To evaluate the effect of hydrogen peroxide, hydrogen peroxide was also included as one of the treatment groups. Hydrogen peroxide was tested at 2.43% w/w. The concentration of hydrogen peroxide to be tested is calculated based on the equivalent amount present in 0.02 mol/L of PPA, which is the sum of hydrogen peroxide already present and from the potential breakdown of PPA. A 900 μL of mold suspension (of c.a. 10^6 CFU/mL prepared in 0.9% sodium chloride) was treated with 100 μL of the test solutions (prepared in sterile water) for one hour.
# After one hour, the treatment solutions were neutralized with 2 mL of sodium thiosulphate and 7 mL of phosphate buffer (0.3 mM; pH 7.2). The solution was at 10-1 dilution. Subsequently the solution was further diluted up to 10-5 with phosphate buffer. The mold count for each treatment was determined through conventional plating method using DRBC agar. Test was conducted in triplicates. Controls were prepared with i) 100 μL of sterile water instead of test solutions and ii) 900 μL of 0.9% sodium chlorine instead of mold suspension and 100 μL of sterile water instead of test solutions.
# [5] = test system: mold in naturally contaminated feed for laying hens; experiment: Mold counts in naturally contaminated laying hen feed, 7 days; conditions: 2500 ppm peroxyacid on feed, 7 days at 25° C.
# Procedure: PPA acid and peracetic acid stock solutions were provided at a concentration of 20% peroxyacid. The treatment solutions were diluted to the correct concentration with ASTM Type II water before application of the treatments. Feed for laying hens that is naturally contaminated with mold was used for the study. The initial mold count of the feed was log 4.66 cfu/g. For each treatment, 100 g of feed was treated with 1.5 ml of the diluted PPA, peracetic acid or a 1:1 mix of PPA acid and peracetic acid, resulting in a final concentration of 2500 ppm of peroxyacid on the feed. The negative control treatment was treated with 1.5 ml of water. The feed was kept for 7 days at 25° C. before analysis.
# Triplicate 5 g feed samples from each treatment were taken and tested for molds. Each sample was mixed vigorously with 0.1% peptone water 30 s and then a 0.1 ml aliquot of the sample was plated on DRBC agar and incubated upright in a 25° C. incubator for 5 days before counting.
# [6] = test system: Aspergillus spp., Penicillium spp, and Fusarium spp.; conditions: Higgins et al. 1999; cited from earlier work
# [7] = test system: Aspergillus niger; conditions: cited from earlier work
# [8] = test system: Penicillium vericulosum; conditions: cited from earlier work
# [9] = 48 hours at 25° C., then DRBC plate 5 days at 25° C.
# [10] = ATCC48908, 0.175 mol/L active, 72 hours, n = 3
# [11] = ATCC48908, 0.350 mol/L active, 72 hours, n = 3
# [12] = 0.175 mol/L active, 72 hours, n = 3
# [13] = 0.350 mol/L active, 72 hours, n = 3
compound,measurement,setting,value
CC(=O)O [Acetic acid],MFC,[1]; [9],> 5000 µg/mL
same,zone of inhibition at 175000 µM,[2]; [10],8.97 ± 0.55 mm
same,zone of inhibition at 350000 µM,[2]; [11],10.9 ± 0.75 mm
CCCC(=O)O [Butyric acid],MFC,[1]; [9],5000 µg/mL
OO [Hydrogen peroxide],"Zone of inhibition, Average ± standard deviation","[3]; 0.3% v/v, 72 hours, n = 3",8.00 ± 0.00^b mm
same,"Zone of inhibition, Average ± standard deviation","[3]; 0.6% v/v, 72 hours, n = 3",9.42 ± 0.16^bc mm
same,"Zone of inhibition, Average ± standard deviation","[3]; 1.0% v/v, 72 hours, n = 3",10.93 ± 0.31^bc mm
same,reduction of A. niger count,[4]; 2.43%,approximately 1.2 log CFU/mL
same,"A. niger count, Average ± standard deviation",[4]; 2.43% v/v,4.75 ± 0.13^b log CFU/mL
same,"Zone of inhibition, Average ± standard deviation","[2]; 0.3% v/v, 72 hours, n = 3",17.10 ± 0.05^cd mm
same,"Zone of inhibition, Average ± standard deviation","[2]; 0.6% v/v, 72 hours, n = 3",19.32 ± 0.76^de mm
same,"Zone of inhibition, Average ± standard deviation","[2]; 1.0% v/v, 72 hours, n = 3",22.08 ± 0.34d^ef mm
"CCC(=O)OO [PPA, perpropionic acid]",Minimum fungicidal concentration,[1]; [9],500 ppm
same,times more effective in killing mold than propionic acid,[1]; from the MFC study,at least 5 times
same,mold counts seven days after treatment versus control,[5],not significantly different from the control treatment
same,"Zone of inhibition, Average ± standard deviation",[3]; [12],16.42 ± 2.19^d mm
same,"Zone of inhibition, Average ± standard deviation",[3]; [13],25.67 ± 2.05^e mm
same,reduction of A. niger count,[4]; 0.02 mol/L,at least 4 log CFU/mL
same,"Zone of inhibition, Average ± standard deviation",[2]; [12],23.80 ± 0.58^ef mm
same,"Zone of inhibition, Average ± standard deviation",[2]; [13],35.45 ± 4.55^g mm
CC(=O)OO [Peracetic acid],MFC,[1],1000 µg/mL
same,mold counts seven days after treatment versus control,[5],not significantly different from the control treatment
same,zone of inhibition at 175000 µM,"[3]; ATCC24126, 72 h",16 ± 0.8 mm
same,zone of inhibition at 350000 µM,"[3]; ATCC24126, 72 h",24.7 ± 2.04 mm
same,zone of inhibition at 175000 µM,"[2]; ATCC48908, 72 h",24.1 ± 0.33 mm
same,zone of inhibition at 350000 µM,"[2]; ATCC48908, 72 h",36 ± 3.8 mm
CCC(=O)O [Propionic acid],Minimum fungicidal concentration,[1]; [9],>5000 ppm
same,zone of inhibition at 175000 µM,"[3]; ATCC24126, 0.175 mol/L active, 72 hours, n = 3",9.42 ± 0.66 mm
same,zone of inhibition at 350000 µM,"[3]; ATCC24126, 0.350 mol/L active, 72 hours, n = 3",12.12 ± 0.03 mm
same,reduction of A. niger count,[4]; 0.02 mol/L,no count reduction
same,"A. niger count, Average ± standard deviation",[4]; 0.02 mol/L,6.01 ± 0.08^c log CFU/mL
same,fungicidal effect,[4]; 0.04 mol/L (3000 ppm),no fungicidal effect
same,"A. niger count, Average ± standard deviation",[4]; 0.04 mol/L,6.08 ± 0.11^c log CFU/mL
same,zone of inhibition at 175000 µM,[2]; [10],9.15 ± 0.45 mm
same,zone of inhibition at 350000 µM,[2]; [11],12.1 ± 0.43 mm
same,concentration for complete inhibition,[6],lower than 0.35%
same,concentration capable of inhibiting,[7],1000-2000 ppm
same,concentration capable of inhibiting,[8],1000-2000 ppm
